From patent US8367658B2, “Pyrazin-2-yl-pyridin-2-yl-amine and pyrazin-2-yl-pyrimidin-4-yl-amine compounds and their use” (Cancer Research Technology Limited, priority 2007, dated 2013)

target: T1, CHK1 (Homo sapiens, UniProt O14757); assay: CHK1 kinase function inhibition assay (DELFIA, phosphorylation of a CDC25C peptide); type: biochemical; conditions: CHK1 1 nM, ATP 30 μM, 30 minutes at room temperature
T1 sequence (O14757 1-476): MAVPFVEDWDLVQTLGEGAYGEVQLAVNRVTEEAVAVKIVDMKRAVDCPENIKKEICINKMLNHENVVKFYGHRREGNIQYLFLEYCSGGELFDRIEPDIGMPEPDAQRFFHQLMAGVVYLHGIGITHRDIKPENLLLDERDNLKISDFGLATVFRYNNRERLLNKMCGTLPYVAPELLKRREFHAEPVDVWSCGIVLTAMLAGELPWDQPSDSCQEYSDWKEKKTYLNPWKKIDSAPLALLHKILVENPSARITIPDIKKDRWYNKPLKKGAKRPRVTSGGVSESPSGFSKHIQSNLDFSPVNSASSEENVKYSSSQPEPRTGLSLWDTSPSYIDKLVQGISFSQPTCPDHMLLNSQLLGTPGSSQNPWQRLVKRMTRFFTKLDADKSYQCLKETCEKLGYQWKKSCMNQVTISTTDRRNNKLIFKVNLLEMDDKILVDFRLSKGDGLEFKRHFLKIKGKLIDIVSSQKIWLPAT
How it was run: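 Phosphorylation of a CDC25C peptide detected by DELFIA with a phospho-specific antibody. Kinase reaction ran 30 min at room temperature, was stopped with EDTA buffer, then captured on neutravidin-coated plates for 1 h before time-resolved fluorescence read-out with enhancement solution.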

| IC50 [nM] | SMILES |
| --- | --- |
| 1000 to 10000 | NCCCCNc1cc(Nc2cnccn2)ncn1 [Compound Z-006, N-(4-Aminobutyl)-N′-pyrazin-2-ylpyrimidine-4,6-diamine] |
| ≤ 100 | COC(=O)c1cnc(Nc2cnc(C#N)cn2)cc1NC1CCCNCC1 (stereo not shown) [Compound Y-076, Methyl 4-(azepan-4-ylamino)-6-(5-cyanopyrazin-2-ylamino)nicotinate] |
| 1000 to 10000 | Cc1ncsc1CCC(=O)Nc1cnc(Nc2cnc(C#N)cn2)cc1NCC1CCCNC1 (stereo not shown) [Compound Y-054, N-(6-(5-Cyanopyrazin-2-ylamino)-4-(piperidin-3-ylmethylamino)pyridin-3-yl)-3-(4-methylthiazol-5-yl)propanamide] |
| 100 to 1000 | N#Cc1cnc(Nc2cc(NCC3CCNCC3)c(C(=O)Nc3ccc(F)cc3)cn2)cn1 [Compound Y-092, 6-(5-Cyanopyrazin-2-ylamino)-N-(4-fluorophenyl)-4-(piperidin-4-ylmethylamino)nicotinamide] |
